Data published in publication PMC12028158, “Synthesis and In Vitro Evaluation of the Anticancer Effect of Novel Phosphonium Vindoline Derivatives” (International Journal of Molecular Sciences, 2025).
Read-outs that look alike come from different tables or passages of the source.

How the values were obtained:
Type in all cases: cell-based
K-562 = assay: NCI60 five-dose screen; settings: Homo sapiens, K562
HOP-62 = assay: NCI60 five-dose screen; settings: Homo sapiens
NCI-H23 = assay: NCI60 five-dose screen; settings: Homo sapiens
NCI-H322M = assay: NCI60 five-dose screen; settings: Homo sapiens
NCI-H460 = assay: NCI60 five-dose screen; settings: Homo sapiens
NCI-H522 = assay: NCI60 five-dose screen; settings: Homo sapiens
COLO 205 = assay: NCI60 five-dose screen; settings: Homo sapiens
HCT-116 [1] = assay: NCI60 five-dose screen; settings: Homo sapiens
KM12 = assay: NCI60 five-dose screen; settings: Homo sapiens
SW-620 [2] = assay: NCI60 five-dose screen; settings: Homo sapiens
SF-295 = assay: NCI60 five-dose screen; settings: Homo sapiens
LOX IMVI = assay: NCI60 five-dose screen; settings: Homo sapiens
UACC-257 = assay: NCI60 five-dose screen; settings: Homo sapiens
UACC-62 = assay: NCI60 five-dose screen; settings: Homo sapiens
OVCAR-3 = assay: NCI60 five-dose screen; settings: Homo sapiens
SK-OV-3 = assay: NCI60 five-dose screen; settings: Homo sapiens
A498 [3] = assay: NCI60 five-dose screen; settings: Homo sapiens
DU-145 = assay: NCI60 five-dose screen; settings: Homo sapiens
MDA-MB-468 = assay: NCI60 five-dose screen; settings: Homo sapiens
Prostate Cancer panel = assay: NCI60 five-dose screen, panel mean; settings: Homo sapiens, read-out: GI50 Mean
CCRF-CEM = assay: NCI60 one-dose screen; settings: Homo sapiens, read-out: Growth percent
RPMI-8226 = assay: NCI60 one-dose screen; settings: Homo sapiens
SR = assay: NCI60 one-dose screen; settings: Homo sapiens, read-out: Growth percent
HCC-2998 = assay: NCI60 one-dose screen; settings: Homo sapiens
HCT-116 [4] = assay: NCI60 one-dose screen; settings: Homo sapiens
HCT-15 = assay: NCI60 one-dose screen; settings: Homo sapiens
HT29 = assay: NCI60 one-dose screen; settings: Homo sapiens
SW-620 [5] = assay: NCI60 one-dose screen; settings: Homo sapiens
SF-268 = assay: NCI60 one-dose screen; settings: Homo sapiens
SF-539 = assay: NCI60 one-dose screen; settings: Homo sapiens
SNB-75 = assay: NCI60 one-dose screen; settings: Homo sapiens
MALME-3M = assay: NCI60 one-dose screen; settings: Homo sapiens, read-out: Growth percent
M14 = assay: NCI60 one-dose screen; settings: Homo sapiens
SK-MEL-28 = assay: NCI60 one-dose screen; settings: Homo sapiens
SK-MEL-5 = assay: NCI60 one-dose screen; settings: Homo sapiens
IGROV1 = assay: NCI60 one-dose screen; settings: Homo sapiens
OVCAR-4 = assay: NCI60 one-dose screen; settings: Homo sapiens
OVCAR-5 = assay: NCI60 one-dose screen; settings: Homo sapiens
NCI/ADR-RES = assay: NCI60 one-dose screen; settings: Homo sapiens, read-out: Growth percent
A498 [6] = assay: NCI60 one-dose screen; settings: Homo sapiens
UO-31 = assay: NCI60 one-dose screen; settings: Homo sapiens
MDA-MB-231/ATCC = assay: NCI60 one-dose screen; settings: Homo sapiens
HS 578T = assay: NCI60 one-dose screen; settings: Homo sapiens, read-out: Growth percent
T-47D = assay: NCI60 one-dose screen; settings: Homo sapiens, T47D, read-out: Growth percent
[7] = tested on: 60 human tumor cell lines (NCI60); assay: NCI60 one-dose screen, overall mean; settings: for activity at 10 µM: Homo sapiens, read-out: Mean growth percent

Work on `CC[C@]12C=CCN3CC[C@@]4(c5ccc(OC)cc5N(C)[C@H]4[C@@](O)(C(=O)OC)[C@@H]1OC(=O)CCCC[P+](c1ccc(F)cc1)(c1ccc(F)cc1)c1ccc(F)cc1)[C@@H]32` [10c] yielded a GI50 (K-562; K-562, Leukemia, read-out: GI50) of 11300 nM, a GI50 (HOP-62; HOP-62, Non-small Cell Lung Cancer, read-out: GI50) of 25500 nM and a GI50 (NCI-H23; NCI-H23, Non-small Cell Lung Cancer, read-out: GI50) of 20100 nM. The GI50 (NCI-H322M; Non-small Cell Lung Cancer, read-out: GI50) was 50000 nM, the GI50 (NCI-H460; NCI-H460, Non-small Cell Lung Cancer, read-out: GI50) was 29400 nM and the GI50 (NCI-H522; NCI-H522, Non-small Cell Lung Cancer, read-out: GI50) was 5440 nM. For the same molecule, the GI50 (COLO 205; COLO 205, COLO 205, Colon Cancer, read-out: GI50) was 4630 nM, the GI50 (HCT-116 [1]; HCT-116, Colon Cancer, read-out: GI50) was 25900 nM and the GI50 (KM12; KM12, KM12, Colon Cancer, read-out: GI50) was 13400 nM. For the same molecule, the GI50 (SW-620 [2]; SW-620, Colon Cancer, read-out: GI50) was 16500 nM, the GI50 (SF-295; SF-295, CNS Cancer, read-out: GI50) was 30600 nM and the GI50 (LOX IMVI; Melanoma, read-out: GI50) was 16800 nM. For the same molecule, the GI50 (UACC-257; UACC-257, UACC-257, Melanoma, read-out: GI50) was 5590 nM, the GI50 (UACC-62; UACC-62, Melanoma, read-out: GI50) was 11300 nM and the GI50 (OVCAR-3; OVCAR-3, Ovarian Cancer, read-out: GI50) was 9300 nM. For the same molecule, the GI50 (SK-OV-3; SK-OV-3, Ovarian Cancer, read-out: GI50) was 23500 nM, the GI50 (A498 [3]; A498, Renal Cancer, read-out: GI50) was > 100000 nM and the GI50 (DU-145; DU-145, Prostate Cancer, read-out: GI50) was 35400 nM. It also gave a GI50 (MDA-MB-468; MDA-MB-468, MDA-MB-468, Breast Cancer, read-out: GI50) of 2610 nM, a GI50 (Prostate Cancer panel; mean over Prostate Cancer panel) of 25900 nM and an activity at 10 µM (CCRF-CEM; 10 μM, one-dose) of 19.9%. It also gave an activity at 10 µM (RPMI-8226; RPMI-8226, 10 μM, one-dose, read-out: Growth percent) of 4.14%, an activity at 10 µM (SR; 10 μM, one-dose) of 28.8% and an activity at 10 µM (HCC-2998; HCC-2998, 10 μM, one-dose, read-out: Growth percent) of 19.4%. For the same molecule, the activity at 10 µM (HCT-116 [4]; HCT-116, 10 μM, one-dose, read-out: Growth percent) was 23.4%, the activity at 10 µM (HCT-15; HCT-15, 10 μM, one-dose, read-out: Growth percent) was 102% and the activity at 10 µM (HT29; HT-29, HT29, 10 μM, one-dose, read-out: Growth percent) was 15.9%. It also gave an activity at 10 µM (SW-620 [5]; SW-620, 10 μM, one-dose, read-out: Growth percent) of 36.9%, an activity at 10 µM (SF-268; SF-268, 10 μM, one-dose, read-out: Growth percent) of 28.1% and an activity at 10 µM (SF-539; SF-539, 10 μM, one-dose, read-out: Growth percent) of 16%. It also gave an activity at 10 µM (SNB-75; SNB-75, 10 μM, one-dose, read-out: Growth percent) of -5.3%, an activity at 10 µM (MALME-3M; MALME-3M, 10 μM, one-dose) of -55.9% and an activity at 10 µM (M14; M14, 10 μM, one-dose, read-out: Growth percent) of 19.7%. It also gave an activity at 10 µM (SK-MEL-28; SK-MEL-28, 10 μM, one-dose, read-out: Growth percent) of -54.9%, an activity at 10 µM (SK-MEL-5; SK-MEL-5, 10 μM, one-dose, read-out: Growth percent) of -59.6% and an activity at 10 µM (IGROV1; IGROV-1, IGROV1, 10 μM, one-dose, read-out: Growth percent) of -42.8%. It also gave an activity at 10 µM (OVCAR-4; OVCAR-4, 10 μM, one-dose, read-out: Growth percent) of 33.1%, an activity at 10 µM (OVCAR-5; OVCAR-5, 10 μM, one-dose, read-out: Growth percent) of 49.7% and an activity at 10 µM (NCI/ADR-RES; 10 μM, one-dose) of 105%. It also gave an activity at 10 µM (A498 [6]; A498, 10 μM, one-dose, read-out: Growth percent) of 99.2%, an activity at 10 µM (UO-31; UO-31, 10 μM, one-dose, read-out: Growth percent) of 85.9% and an activity at 10 µM (MDA-MB-231/ATCC; MDA-MB-231/ATCC, 10 μM, one-dose, read-out: Growth percent) of 2.85%. It also gave an activity at 10 µM (HS 578T; HS 578T, 10 μM, one-dose) of -2.23%, an activity at 10 µM (T-47D; T-47D, 10 μM, one-dose) of 12.8% and an activity at 10 µM ([7]; mean over 60 cell lines, 10 μM, one-dose) of 17%.
Molecule `CC[C@]12C=CCN3CC[C@@]4(c5ccc(OC)cc5N(C)[C@H]4[C@@](O)(C(=O)OC)[C@@H]1OC(=O)CCCC[P+](c1ccc(C)cc1)(c1ccc(C)cc1)c1ccc(C)cc1)[C@@H]32` [10a] has a GI50 (K-562) of 654 nM, a GI50 (HOP-62; HOP-62) of 1370 nM and a GI50 (NCI-H23; NCI-H23) of 855 nM. For the same molecule, the GI50 (NCI-H322M) was 2670 nM, the GI50 (NCI-H460; NCI-H460) was 600 nM and the GI50 (NCI-H522; NCI-H522) was 306 nM. It also gave a GI50 (COLO 205; COLO 205) of 200 nM, a GI50 (HCT-116 [1]; HCT-116) of 452 nM and a GI50 (KM12; KM12) of 596 nM. The GI50 (SW-620 [2]; SW-620) was 761 nM, the GI50 (SF-295; SF-295) was 1620 nM and the GI50 (LOX IMVI) was 797 nM. The GI50 (UACC-257; UACC-257) was 817 nM, the GI50 (UACC-62; UACC-62) was 705 nM and the GI50 (OVCAR-3; OVCAR-3) was 604 nM. The GI50 (SK-OV-3; SK-OV-3) was 1040 nM, the GI50 (A498 [3]; A498) was 2170 nM and the GI50 (DU-145; DU-145) was 1150 nM. For the same molecule, the GI50 (MDA-MB-468; MDA-MB-468) was 264 nM, the GI50 (Prostate Cancer panel) was 800 nM and the activity at 10 µM (CCRF-CEM) was -72.4%. It also gave an activity at 10 µM (RPMI-8226; RPMI-8226, read-out: Growth percent) of -46%, an activity at 10 µM (SR) of 25.8% and an activity at 10 µM (HCC-2998; HCC 2998, read-out: Growth percent) of -85.8%. It also gave an activity at 10 µM (HCT-116 [4]; HCT-116, read-out: Growth percent) of -93.5%, an activity at 10 µM (HCT-15; HCT-15, read-out: Growth percent) of -90.1% and an activity at 10 µM (HT29; HT-29, read-out: Growth percent) of -81.8%. For the same molecule, the activity at 10 µM (SW-620 [5]; SW-620, read-out: Growth percent) was -88.2%, the activity at 10 µM (SF-268; SF-268, read-out: Growth percent) was -61.1% and the activity at 10 µM (SF-539; SF-539, read-out: Growth percent) was -98.7%. The activity at 10 µM (SNB-75; SNB-75, read-out: Growth percent) was -87.6%, the activity at 10 µM (MALME-3M; Malme-3M) was -96% and the activity at 10 µM (M14; M14, read-out: Growth percent) was -88.3%. For the same molecule, the activity at 10 µM (SK-MEL-28; SK-MEL-28, read-out: Growth percent) was -97.8%, the activity at 10 µM (SK-MEL-5; SK-MEL-5, read-out: Growth percent) was -98.5% and the activity at 10 µM (IGROV1; IGROV-1, read-out: Growth percent) was -91.8%. For the same molecule, the activity at 10 µM (OVCAR-4; OVCAR-4, read-out: Growth percent) was -68.9%, the activity at 10 µM (OVCAR-5; OVCAR-5, read-out: Growth percent) was -96% and the activity at 10 µM (NCI/ADR-RES) was 71.8%. It also gave an activity at 10 µM (A498 [6]; A498, read-out: Growth percent) of -90.9%, an activity at 10 µM (UO-31; UO-31, read-out: Growth percent) of -96% and an activity at 10 µM (MDA-MB-231/ATCC; MDA-MB-231, read-out: Growth percent) of -97.2%. The activity at 10 µM (HS 578T; Hs-578T) was -69.9%, the activity at 10 µM (T-47D) was -64.5% and the activity at 10 µM ([7]; 60 cell) was -78.7%. For the same molecule, the “average reduction / average cell death” value ([7]; one-dose, 10 µM, average over cell lines) was “more than 70%”.
